From patent US5180672A, “Ascorbate oxidase isolated from Acremonium sp. HI-25 ferm BP-3124” (Asahi Kasei Kogyo Kabushiki Kaisha, priority 1990, dated 1993)
Like-named read-outs stand apart in the source and are kept apart here.

Assays:
[1] = tested on: ascorbate oxidase produced by Acremonium sp. HI-25; type: biochemical; conditions: for residual relative activities (%): 10 min, 1000 µM
[2] = tested on: ascorbate oxidase from Acremonium sp. HI-25; conditions: NaN3 0.2%, 2880 min
[3] = tested on: ascorbate oxidase from Myrothecium verrucaria, hypha; conditions: at 1 mM; printed as effective (50% at 1 mM); cited from earlier work
[4] = biological target: T1, ascorbate oxidase from cucumber (Toyobo ASCORBATE OXIDASE, EC 1.10.3.3) (Cucumis sativus, UniProt P14133); conditions: reference J. Biochem. 64, 189 (1968); Toyobo catalog; read-out: K m (L-ascorbate); cited from earlier work
T1 sequence (P14133 34-587): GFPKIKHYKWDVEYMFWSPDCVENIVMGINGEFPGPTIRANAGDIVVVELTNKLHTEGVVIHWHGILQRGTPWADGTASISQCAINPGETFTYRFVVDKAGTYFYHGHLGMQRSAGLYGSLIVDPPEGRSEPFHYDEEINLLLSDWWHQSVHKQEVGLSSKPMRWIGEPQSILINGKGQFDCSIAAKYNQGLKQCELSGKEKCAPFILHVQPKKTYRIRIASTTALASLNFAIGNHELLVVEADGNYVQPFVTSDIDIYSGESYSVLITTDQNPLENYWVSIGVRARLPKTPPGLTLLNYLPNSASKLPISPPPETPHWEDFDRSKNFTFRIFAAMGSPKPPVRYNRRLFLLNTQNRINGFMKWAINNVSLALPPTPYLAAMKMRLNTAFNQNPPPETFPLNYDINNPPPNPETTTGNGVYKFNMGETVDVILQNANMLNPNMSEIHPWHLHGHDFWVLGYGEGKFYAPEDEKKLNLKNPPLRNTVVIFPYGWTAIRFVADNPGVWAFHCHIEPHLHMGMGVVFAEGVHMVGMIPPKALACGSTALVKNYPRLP

O=C(O)CN(CCN(CC(=O)O)CC(=O)O)CC(=O)O [EDTA]
residual relative activities (%) [1]: 106%

[N-]=[N+]=[N-] [sodium azide]
inactivation by inhibitor (in words) [1]: inactivated | relative activities, 100 as buffers only ([2]; PIPES buffer with 0.1 % BSA): 78.4% | relative activities, 100 as buffers only ([2]; Pi buffer with 0.1 % BSA): 76.2% | relative activities, 100 as buffers only ([2]; Tris buffer with 0.1 % BSA): 78.6%

[Na+].[Na+].[S-2] [Na2 S, sodium sulfide]
residual relative activities (%) [1]: 3%

CCN(CC)C(=S)[S-].[Na+] [sodium N,N-diethyldithiocarbamate]
residual relative activities (%) [1]: 101% | inhibition by inhibitor [3]: 50%

O=C1O[C@H]([C@@H](O)CO)C(O)=C1O [L-ascorbate]
Km [4]: 250 µM
